From US20040087561A1, “Treatment of sexual dysfunction” (priority 2000, published 2004)

Key:
[1] = system: Sprague Dawley male rats; assay: Sexual behaviour of normal (sexually vigorous) male rats; type: in vivo, rat; conditions: Compound (1) 15 mg/kg or fluoxetine 20 mg/kg i.p., 1 h before test, vs vehicle
Experimental: The potentially stimulatory effect of Compound (1) on male sexual behaviour has been tested on sexually vigorous rats. Sprague Dawley male rats (Charles River, UK) were kept, 4 rats per cage, in a reversed lighting regime (12:12 hours, lights off at 5.00 h), with free access to food and water. The rats were pre-selected by being presented with a receptive female at 4 days intervals, i.e. every third day (having 2 clear days between presentations) until completing 6-7 days of baseline determination. The animals showing consistently vigorous behaviour (ejaculatory latencies <300 s) were chosen for further experiments (n=24). Animals were randomised into three groups. All animals received all three treatments following a latin-square design. Treatments were administered once a week, with a baseline test in between treatments (4 days intervals between baseline and test day). Treatments were Compound (1) (15 mg/kg, dissolved in 50% 2-hydroxypropyl-β-cyclodextrin in saline), vehicle, or Fluoxetine (20 mg/kg dissolved in 100% DMSO). All treatments were administered i.p. in a 1 ml/kg volume, 1 h before tests.
For all the sexual behaviour tests, the males were placed in an observation arena (50-60 cm diameter), starting 5 hours into the dark cycle and observed under red illumination. Three to 4 minutes after placing the male in the arena, a receptive female (ovariectomised, bearing a 7 mm Silastic implant of oestradiol benzoate) was introduced to the arena and the following parameters noted: Mount Latency: time (in seconds) taken between introduction of female and first mount. A maximum time of 15 minutes (900 seconds) was allowed, and the test terminated if no mounts were recorded within that time (FIG. 11), Intromission Latency: time (in seconds) taken between introduction of female and first intromission (FIG. 12), Number of Mounts: to reach ejaculation. When ejaculation was not reached, the number of mounts was not analyzed, Number of Intromissions: to reach ejaculation. When ejaculation was not reached, the number of intromissions was not analyzed (FIG. 13 is number of mounts+intromissions), Ejaculation Latency: time (in seconds) taken from first intromission to ejaculation. A maximum time of 30 minutes (1800 seconds) was given, and the test terminated if ejaculation was not achieved in that time (FIG. 14), and Refractory Period: time (in seconds) taken from ejaculation to the first mount of the next series of sexual activity. In those animals reaching ejaculation the test was terminated at the end of the refractory period, as indicated by the first mount of the next sexual cycle (FIG. 15).
A one-way ANOVA followed by Dunnett's t test was used to compare treated vs vehicle groups each day of testing, for all the sexual behaviour parameters. (*P<0.05, **P<0.01; n=15-16).

[2] = system: Sprague Dawley male rats; assay: Sexual behaviour of sexually dysfunctional (fluoxetine-treated) male rats; type: in vivo, rat; conditions: fluoxetine 20 mg/kg i.p. 3 days (vs vehicle+vehicle); day 4 Compound (1) 15 mg/kg or yohimbine 2 mg/kg i.p. 1 h before test (vs fluoxetine+vehicle)
Experimental: Sprague Dawley male rats (Charles River, UK) were kept, 4 rats per cage, in a reversed lighting regime (12:12 hours, lights off at 5.00 h), with free access to food and water. The rats were pre-selected by being presented with a receptive female at […], i.e. every third day (haying 2 clear days between presentations) until completing 6-7 trials of baseline determination. The animals showing consistently vigorous behaviour (ejaculatory latencies <300 s) were chosen for further experiments. Animals were treated for 3 consecutive days with either vehicle (water) or fluoxetine (20 mg/kg, i.p., in a 2 ml/kg dosing volume). On the fourth day, the animals treated with water received vehicle (veh+veh) and the animals treated with fluoxetine received one of the three following treatments: Compound (1) (15 mg/kg, dissolved in 50% 2-hydroxypropyl-β-cyclodextrin in saline), vehicle (cyclodextrine), or yohimbine (2 mg/kg dissolved in water). All treatments were administered i.p. in a 1 ml/kg volume, 1 h before tests.
For all the sexual behaviour tests, the males were placed in an observation arena (50-60 cm diameter), starting 5 hours into the dark cycle and observed under red illumination. Three to 4 minutes after placing the male in the arena, a receptive female (ovariectomised, bearing a 7 mm Silastic implant of oestradiol benzoate) was introduced to the arena and the following parameters noted: Mount Latency: time (in seconds) taken between introduction of female and first mount. A maximum time of 15 minutes (900 seconds) was allowed, and the test terminated if no mounts were recorded within that time (FIG. 16), Ejaculation Latency: time (in seconds) taken from first intromission to ejaculation. A maximum time of 30 minutes (1800 seconds) was given, and the test terminated if ejaculation was not achieved in that time (FIG. 17), Percentage of males achieving ejaculation within 30 minutes was calculated (FIG. 18).
A one-way ANOVA followed by Dunnett's t test was used to compare the fluoxetine+vehicle group and other groups for mount and ejaculatory latencies. Percentage of animals ejaculating was analysed using a Chi-square test followed by Fisher's test. (*: P<0.05, **: P<0.01, ***: P<0.001; n=15-19).

[3] = system: ovariectomised female Sprague Dawley rats; assay: Female rat sexual proceptivity (time investigating male vs female stimulus); type: in vivo; conditions: day 1; Compound (1) 15 mg/kg i.p. 1 h before; progesterone 0.5 mg/0.1 ml s.c. 4 h before; vs vehicle, P<0.01
Experimental: Ovariectomised adult female Sprague Dawley rats (180-200 g, from Charles River) were housed in groups of 6 in a reversed lighting system of 12 h light:dark (lights off 7.00-19.00 h). Two weeks after ovariectomy they were used for sexual activity tests. The experiments started at least 5 h into the dark period.
Tests were carried out in a circular arena of 90 cm diameter, surrounded by a 30 cm high wall. Two small cages with wire-mesh front (15×15 cm) are fixed into the wall such that the front of the cage is <> with the wall and the 2 cages are opposite each other. They contained two stimuli animals: an intact sexually experienced male and a receptive female (ovariectomised, primed with 5 μg oestradiol benzoate dissolved in corn oil and injected subcutaneously 48 hours before the test and with 0.5 mg of progesterone four hours before the test). Sexually naive test and control animals were used. Forty eight hours before the tests, both the test and control animals were primed with 5 μg oestradiol benzoate. For animals used as positive controls, progesterone (0.5 mg/0.1 ml) was dissolved in corn oil and administered subcutaneously (s.c.), 4 h before the test. Test and control animals were introduced one at a time for 10 minute periods into the arena. During the 10 min test, the time that the test or positive control animal spent investigating each stimulus animal was noted. The arena was thoroughly cleaned between animals. The position of the male/female stimuli boxes was randomised between animals, in order to avoid place preference. The difference in the percentage of time spent investigating the male minus the female stimuli was calculated, out of the total time spent investigating stimuli animals.
Compound (1) was dissolved in 100% β-cyclodextrin and then diluted with saline to a final solution of 50% 2-hydroxypropyl-β-cyclodextrin. It was administered intraperitoneally (i.p.) at doses of 3 and 10 mg/kg, in a dosing volume of 1 ml/kg, 1 h before tests. Progesterone (0.5 mg/0.1 ml) was dissolved in corn oil and administered subcutaneously (s.c.), 4 h before test, as a positive control.
Ovariectomised adult female Sprague Dawley rats (180-200 g) were housed in groups of 5 in a reversed lighting system of 12 h light:dark (lights off 5.00-17.00 h). They were used for the experiments at least two weeks after ovariectomy. Forty eight hours before tests, the animals were primed with oestradiol benzoate (5 μg/0.1 ml in corn oil, s.c.). On day 1, progesterone (0.5 mg/0.1 ml, in corn oil, s.c.) was administered to one of the groups 4 h before tests, as a positive control. Compound (1) (15 mg/kg, i.p.) was administered in 50% 2-hydroxypropyl-β-cyclodextrin, 1 h before tests. The test lasted 10 minutes and was carried out as described before. The difference in the percentage of time spent investigating the male minus the female stimuli was calculated, out of the total time spent investigating stimuli animals. Animals were submitted to a test on day 1 and on day 15. From day 2 to 14 the Compound (1) group received a daily injection of the compound (15 mg/kg, i.p.), while both the vehicle and the progesterone groups received an injection of vehicle. On day 15 the test took place again, as described for day 1.
Ovariectomised female rats (Sprague Dawley, obtained from Charles River, UK) were stereotaxically implanted (coordinates 0.89 mm behind Bregma, 1.3 mm lateral and 2.5 mm vertical) with stainless steel cannulae (6 mm long, O.D. 0.75 mm), held in place with dental cement. Animals were housed in groups of three and returned to a reversed lighting system of 12 h light:dark (lights off 5.00-17.00 h). Correct placement of the cannulae was assessed post-mortem. Rats were used for tests two weeks after ovariectomy (one week after cannulation). The experiments started at least 5 h into the dark period. […]

[4] = system: ovariectomised female Sprague Dawley rats; assay: Inhibition of female rat sexual proceptivity by NMB and its antagonism; type: in vivo
Experimental: Ovariectomised female rats (Sprague Dawley, obtained from Charles River, UK) were stereotaxically implanted (coordinates 0.89 mm behind Bregma, 1.3 mm lateral and 2.5 mm vertical) with stainless steel cannulae (6 mm long, O.D. 0.75 mm), held in place with dental cement. Animals were housed in groups of three and returned to a reversed lighting system of 12 h light:dark (lights off 5.00-17.00 h). Correct placement of the cannulae was assessed post-mortem. Rats were used for tests two weeks after ovariectomy (one week after cannulation). The experiments started at least 5 h into the dark period. Forty eight hours before tests, the animals were primed with 5 μg oestradiol benzoate (OB) (s.c, in corn oil) and adapted to the apparatus (in the absence of stimuli animals) for 10 min on 2 consecutive days prior testing. The 10 min test was carried out as previously described. The difference in the percentage of time spent investigating male minus female was calculated, out of the total time spent investigating stimuli.
Progesterone (Prog, 0.5 mg/0.1 ml) was dissolved in corn oil and administered subcutaneously (s.c.), 4 h before test, to induce proceptive behaviour. Compound (1) (15 mg/kg, i.p.) was dissolved in 50% 2-hydroxypropyl-β-cyclodextrin in saline and administered 1 h before the i.c.v. administration. Neuromedin B was obtained from Bachem, UK. It was dissolved in isotonic saline and administered i.c.v. over a 30 sec period, with the aid of a pump set to deliver a flow of 10 μl/min, 10 min before tests. The dosing volume was 5 μl/rat. Each rat received a total amount of 100 ng.
From the present study we can conclude that stimulation of BB1 receptors with an agonist results in inhibition of proceptive behaviour. This inhibitory effect may be prevented by the presence of an antagonist. e.g. Compound (1) In FIG. 5 the bars represent percentage of time spent investigating male, minus the percentage of time spent investigating the female stimuli+SEM, (n=8-12 per group). ***P<0.001 vs progesterone (One-way ANOVA followed by Dunnett's test).

[5] = system: ovariectomised female Sprague Dawley rats; assay: Plasma sexual hormone levels (radioimmunoassay) in ovariectomised female rats; type: in vivo, rat; conditions: Compound (1) 3-10 mg/kg 1 h, progesterone 0.5 mg/0.1 ml s.c. 4 h before blood collection; vs vehicle
Experimental: Ovariectomised adult female Sprague Dawley rats (180-200 g) were housed in groups of 6 in a reversed lighting system of 12 h light:dark (lights off 7.00-19.00 h). They were used for the experiments at least two weeks after ovariectomy. Forty eight hours before tests, the animals were primed with oestradiol benzoate (5 μg/0.1 ml in corn oil, s.c.). Progesterone (0.5 mg/0.1 ml, in corn oil, s.c.) was administered 4 h before blood collection, as a positive control. Compound (1) (3-10 mg/kg, i.p.) was administered in 50% 2-hydroxypropyl-β-cyclodextrin, 1 h prior to blood collection. Blood was collected from the trunk, after decapitation. It was immediately centrifuged (3500 r.p.m., 4° C., 5 min) and the plasmas frozen until assayed for hormonal content, using commercially available radioimmunoassay kits (^125I-labelled hormones) for oestradiol, progesterone, LH, FSH and prolactin.

`CNCCC(Oc1ccc(C(F)(F)F)cc1)c1ccccc1` (stereo not shown) [fluoxetine] was tested, and the Ejaculation latency [1] was “also increased”, the Intromission latency [1] was “significantly increased” and the Mount latency [1] was “significantly increased”. For the same molecule, the Refractory period [1] was “also increased”, the “number of mounts and intromissions required to achieve ejaculation” value [1] was “No changes” and the Ejaculation latency [2] was “significantly increased”. The Mount latency [2] was “significantly increased” and the “percentage of animals ejaculating (within 30 minutes)” value [2] was “significantly lower”.

For `CC(=O)[C@H]1CC[C@H]2[C@@H]3CCC4=CC(=O)CC[C@]4(C)[C@H]3CC[C@]12C` [progesterone, reference compound], the “effect on proceptivity, day 1” value [3] was “stimulatory effect on proceptivity”, the “percentage of time spent investigating the male stimulus” value ([4]; progesterone 0.5 mg/0.1 ml s.c. 4 h before test, vs vehicle group) was “increased the percentage of time spent investigating the male stimulus” and the LH plasma levels [5] was “significant decrease”. The progesterone plasma levels [5] was “significant increase”.

With neuromedin B [NMB] the “proceptivity in progesterone-treated rats” value ([4]; NMB 100 ng i.c.v. 10 min before test) was “significantly reduced proceptivity”.
